PubChem BioAssay AID2060489 (Molecular Pharmacology Branch, DTP, NCI, 2025)

Tested on: 922993-354-T-J3-PDC complex spheroids, viability
Experiment: Anticancer human tumor 922993-354-T-J3-PDC patient-derived endometrial carcinoma cell line growth inhibition [GQUAD]
Details: for IC50: curve of first compound; for viability, T/C: stronger effect = lower value
Outline: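 Viability of tumor cells grown as complex spheroids with endothelial and stromal cells, exposed to drug combinations. Top concentration at or near clinical Cmax (else 10 microM), diluted in half-log increments.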

[1] = second compound 0.0316 µM, first compound 0.000999 µM
[2] = second compound 0.0316 µM, first compound 0.00316 µM
[3] = second compound 0.0316 µM, first compound 0.00999 µM
[4] = second compound 0.0316 µM, first compound 0.0316 µM
[5] = second compound 0.0316 µM, first compound 0.0999 µM
[6] = second compound 0.0316 µM, first compound 0.316 µM
[7] = second compound 0.1 µM, first compound 0.000999 µM
[8] = second compound 0.1 µM, first compound 0.00316 µM
[9] = second compound 0.1 µM, first compound 0.00999 µM
[10] = second compound 0.1 µM, first compound 0.0316 µM
[11] = second compound 0.1 µM, first compound 0.0999 µM
[12] = second compound 0.1 µM, first compound 0.316 µM
[13] = second compound 0.316 µM, first compound 0.000999 µM
[14] = second compound 0.316 µM, first compound 0.00316 µM
[15] = second compound 0.316 µM, first compound 0.00999 µM
[16] = second compound 0.316 µM, first compound 0.0316 µM
[17] = second compound 0.316 µM, first compound 0.0999 µM
[18] = second compound 0.316 µM, first compound 0.316 µM
[19] = second compound 1 µM, first compound 0.000999 µM
[20] = second compound 1 µM, first compound 0.00316 µM
[21] = second compound 1 µM, first compound 0.00999 µM
[22] = second compound 1 µM, first compound 0.0316 µM
[23] = second compound 1 µM, first compound 0.0999 µM
[24] = second compound 1 µM, first compound 0.316 µM
[25] = second compound 3.16 µM, first compound 0.000999 µM
[26] = second compound 3.16 µM, first compound 0.00316 µM
[27] = second compound 3.16 µM, first compound 0.00999 µM
[28] = second compound 3.16 µM, first compound 0.0316 µM
[29] = second compound 3.16 µM, first compound 0.0999 µM
[30] = second compound 3.16 µM, first compound 0.316 µM
[31] = second compound 10 µM, first compound 0.000999 µM
[32] = second compound 10 µM, first compound 0.00316 µM
[33] = second compound 10 µM, first compound 0.00999 µM
[34] = second compound 10 µM, first compound 0.0316 µM
[35] = second compound 10 µM, first compound 0.0999 µM
[36] = second compound 10 µM, first compound 0.316 µM
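Note: spheroids exposed to compounds for seven days.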
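Throughout, for viability, T/C: 100% = DMSO vehicle control viability.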

Cn1ncnc1[C@H]1c2n[nH]c(=O)c3cc(F)cc(c23)N[C@@H]1c1ccc(F)cc1 + CN(C)c1ccc(Nc2c3ccc(NC(=O)CCN4CCCC4)cc3nc3cc(NC(=O)CCN4CCCC4)ccc23)cc1
IC50 (second compound 0.0316 µM): > 316 nM
IC50 (second compound 0.1 µM): > 316 nM
IC50 (second compound 0.316 µM): 222 nM
IC50 (second compound 1 µM): > 316 nM
IC50 (second compound 3.16 µM): > 316 nM
IC50 (second compound 10 µM): > 316 nM
viability, T/C [1]: 98.4%
viability, T/C [2]: 83.2%
viability, T/C [3]: 68.9%
viability, T/C [4]: 79.6%
viability, T/C [5]: 95.2%
viability, T/C [6]: 60.4%
viability, T/C [7]: 111%
viability, T/C [8]: 93.7%
viability, T/C [9]: 98.1%
viability, T/C [10]: 90.1%
viability, T/C [11]: 91.8%
viability, T/C [12]: 55.4%
viability, T/C [13]: 97.4%
viability, T/C [14]: 85.7%
viability, T/C [15]: 91.7%
viability, T/C [16]: 111%
viability, T/C [17]: 84.4%
viability, T/C [18]: 34.7%
viability, T/C [19]: 93.6%
viability, T/C [20]: 108%
viability, T/C [21]: 96%
viability, T/C [22]: 92.1%
viability, T/C [23]: 109%
viability, T/C [24]: 60.1%
viability, T/C [25]: 78%
viability, T/C [26]: 83.5%
viability, T/C [27]: 109%
viability, T/C [28]: 106%
viability, T/C [29]: 105%
viability, T/C [30]: 72.2%
viability, T/C [31]: 108%
viability, T/C [32]: 118%
viability, T/C [33]: 123%
viability, T/C [34]: 107%
viability, T/C [35]: 98.5%
viability, T/C [36]: 83%

CCc1c2c(nc3ccc(O)cc13)-c1cc3c(c(=O)n1C2)COC(=O)[C@]3(O)CC + Cc1[nH]c2ccc(F)cc2c1-c1nc2c3cccnc3c3ncccc3c2[nH]1
IC50 (second compound 0.0316 µM): 7.56 nM
IC50 (second compound 0.1 µM): 8.08 nM
IC50 (second compound 0.316 µM): 6.62 nM
IC50 (second compound 1 µM): 8.02 nM
IC50 (second compound 3.16 µM): 7.57 nM
IC50 (second compound 10 µM): 6.77 nM
viability, T/C [1]: 91.8%
viability, T/C [2]: 68.3%
viability, T/C [3]: 48.7%
viability, T/C [4]: 22.1%
viability, T/C [5]: 25.9%
viability, T/C [6]: 32.9%
viability, T/C [7]: 103%
viability, T/C [8]: 81.9%
viability, T/C [9]: 44.2%
viability, T/C [10]: 24.4%
viability, T/C [11]: 25.4%
viability, T/C [12]: 33%
viability, T/C [13]: 119%
viability, T/C [14]: 76.1%
viability, T/C [15]: 36.6%
viability, T/C [16]: 23.4%
viability, T/C [17]: 24.6%
viability, T/C [18]: 36.5%
viability, T/C [19]: 101%
viability, T/C [20]: 82.4%
viability, T/C [21]: 43.4%
viability, T/C [22]: 24.3%
viability, T/C [23]: 22.6%
viability, T/C [24]: 32.1%
viability, T/C [25]: 105%
viability, T/C [26]: 67.2%
viability, T/C [27]: 53.6%
viability, T/C [28]: 15.6%
viability, T/C [29]: 31.4%
viability, T/C [30]: 28.9%
viability, T/C [31]: 102%
viability, T/C [32]: 65.4%
viability, T/C [33]: 48.5%
viability, T/C [34]: 18.8%
viability, T/C [35]: 22.9%
viability, T/C [36]: 33.6%

Cc1cccc(N(C)C(=O)C2C(O)CCN2c2nc(C)cc(C(F)(F)F)c2C#N)c1 (stereo unspecified) + Cc1cnc(CNC(=O)c2c(=O)c3ccc(N4CCCN(C)CC4)nc3n3c2sc2ccccc23)cn1
IC50 (second compound 0.0316 µM): > 10000 nM
IC50 (second compound 0.1 µM): 4160 nM
IC50 (second compound 0.316 µM): < 31.6 nM
IC50 (second compound 1 µM): > 10000 nM
IC50 (second compound 3.16 µM): < 31.6 nM
IC50 (second compound 10 µM): < 31.6 nM
viability, T/C [4]: 78%
viability, T/C (second compound 0.0316 µM, first compound 0.1 µM): 87.2%
viability, T/C [6]: 88%
viability, T/C (second compound 0.0316 µM, first compound 1 µM): 77.9%
viability, T/C (second compound 0.0316 µM, first compound 3.16 µM): 74.6%
viability, T/C (second compound 0.0316 µM, first compound 10 µM): 68.6%
viability, T/C [10]: 65.1%
viability, T/C (second compound 0.1 µM, first compound 0.1 µM): 62.4%
viability, T/C [12]: 59%
viability, T/C (second compound 0.1 µM, first compound 1 µM): 52.9%
viability, T/C (second compound 0.1 µM, first compound 3.16 µM): 55.8%
viability, T/C (second compound 0.1 µM, first compound 10 µM): 43.9%
viability, T/C [16]: 50.3%
viability, T/C (second compound 0.316 µM, first compound 0.1 µM): 42.7%
viability, T/C [18]: 43.4%
viability, T/C (second compound 0.316 µM, first compound 1 µM): 53.7%
viability, T/C (second compound 0.316 µM, first compound 3.16 µM): 45.5%
viability, T/C (second compound 0.316 µM, first compound 10 µM): 47.1%
viability, T/C [22]: 54.7%
viability, T/C (second compound 1 µM, first compound 0.1 µM): 59%
viability, T/C [24]: 54.4%
viability, T/C (second compound 1 µM, first compound 1 µM): 46.1%
viability, T/C (second compound 1 µM, first compound 3.16 µM): 57.8%
viability, T/C (second compound 1 µM, first compound 10 µM): 53.5%
viability, T/C [28]: 50.9%
viability, T/C (second compound 3.16 µM, first compound 0.1 µM): 44.4%
viability, T/C [30]: 41.3%
viability, T/C (second compound 3.16 µM, first compound 1 µM): 46.1%
viability, T/C (second compound 3.16 µM, first compound 3.16 µM): 51.1%
viability, T/C (second compound 3.16 µM, first compound 10 µM): 44.6%
viability, T/C [34]: 39.6%
viability, T/C (second compound 10 µM, first compound 0.1 µM): 48.5%
viability, T/C [36]: 56.8%
viability, T/C (second compound 10 µM, first compound 1 µM): 39.1%
viability, T/C (second compound 10 µM, first compound 3.16 µM): 50.6%
viability, T/C (second compound 10 µM, first compound 10 µM): 41.4%
